Data as given in ChEMBL document CHEMBL1201862, “PubChem BioAssay data set” (2004).
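96-well plates; 48 h exposure; 5 concentrations. Endpoints by linear interpolation between flanking doses. Not reached: highest tested concentration assigned. Here, GI50 denotes the concentration required for 50% inhibition of growth.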 Calls of active or inactive are those of the source. Rule as the data show it: active = GI50 up to about 1.1 µM and inactive = higher.

Tests used:
Assay in all cases: growth of human tumour cells (NCI), 48 h
[1] = system: SF-539
[2] = system: NCI-H23
[3] = system: MDA-N
[4] = system: U-251
[5] = system: MCF7
[6] = system: SR
[7] = system: UACC-62
[8] = system: A498
[9] = system: 786-0
[10] = system: SN12C
[11] = system: PC-3
[12] = system: K562
[13] = system: NCI-H522
[14] = system: SK-MEL-28
[15] = system: HOP-62
[16] = system: SF-295
[17] = system: KM12
[18] = system: SNB-19
[19] = system: OVCAR-8
[20] = system: UACC-257

Compound	GI50 [1]	GI50 [2]	GI50 [3]	GI50 [4]	GI50 [5]	GI50 [6]	GI50 [7]	GI50 [8]	GI50 [9]	GI50 [10]	GI50 [11]	GI50 [12]	GI50 [13]	GI50 [14]	GI50 [15]	GI50 [16]	GI50 [17]	GI50 [18]	GI50 [19]	GI50 [20]
COC(=O)NC(Nc1ccc(Cl)cc1Cl)(C(F)(F)F)C(F)(F)F	49 µM (inactive)	> 100 µM (inactive)	34.7 µM (inactive)	54.1 µM (inactive)	> 100 µM (inactive)	5.31 µM (inactive)	5.2 µM (inactive)	33.2 µM (inactive)	> 100 µM (inactive)	80.4 µM (inactive)	15.1 µM (inactive)	2.85 µM (inactive)	37.1 µM (inactive)	> 100 µM (inactive)	> 100 µM (inactive)	> 100 µM (inactive)	14 µM (inactive)	> 100 µM (inactive)	70.8 µM (inactive)	> 100 µM (inactive)
O=C(CCCCCCC(=O)Nc1cccnc1)NO [PYROXAMIDE]	3.09 µM (inactive)	13 µM (inactive)	2.62 µM (inactive)	4.76 µM (inactive)	3.8 µM (inactive)	> 100 µM (inactive)	3.34 µM (inactive)	11 µM (inactive)	7.21 µM (inactive)		7.26 µM (inactive)	4.26 µM (inactive)	1.26 µM (inactive)	4.4 µM (inactive)	7.16 µM (inactive)	21.2 µM (inactive)	2.93 µM (inactive)	16.1 µM (inactive)	1.78 µM (inactive)	4.75 µM (inactive)
O=C1C(Cl)=C(N2CCC[C@@H]2CO)C(=O)c2c(O)ccc(O)c21	1.92 µM (inactive)	1.64 µM (inactive)	1.54 µM (inactive)	1.83 µM (inactive)	1.16 µM (inactive)	2.18 µM (inactive)	1.36 µM (inactive)	2.9 µM (inactive)	1.76 µM (inactive)	1.79 µM (inactive)	1.91 µM (inactive)	0.347 µM (active)	1.12 µM (active)	1.82 µM (inactive)	1.58 µM (inactive)	1.79 µM (inactive)	1.75 µM (inactive)	1.66 µM (inactive)	2 µM (inactive)	1.76 µM (inactive)
O=c1ss/c(=N\c2ccccc2)n1-c1ccccc1	35.9 µM (inactive)	21.7 µM (inactive)	34.5 µM (inactive)	23.2 µM (inactive)	19.5 µM (inactive)	17.3 µM (inactive)	31.1 µM (inactive)	> 100 µM (inactive)	18.3 µM (inactive)	20.4 µM (inactive)	19.5 µM (inactive)	21.8 µM (inactive)		36.9 µM (inactive)	20.6 µM (inactive)	> 100 µM (inactive)	30.8 µM (inactive)	62.5 µM (inactive)	16.8 µM (inactive)	20.4 µM (inactive)
O=C(Cc1ccccc1)NNc1nc(NNC(=O)c2ccncc2)nc(Nc2ccc([N+](=O)[O-])cc2)n1	> 10 µM (inactive)	6.79 µM (inactive)	8.59 µM (inactive)	> 10 µM (inactive)	> 10 µM (inactive)	> 10 µM (inactive)	9.38 µM (inactive)	> 10 µM (inactive)	> 10 µM (inactive)	> 10 µM (inactive)	2.7 µM (inactive)	6.19 µM (inactive)	> 10 µM (inactive)	> 10 µM (inactive)	> 10 µM (inactive)	> 10 µM (inactive)	> 10 µM (inactive)	6.56 µM (inactive)	> 10 µM (inactive)	5.69 µM (inactive)
CCc1cc2c(c3c1CCCC3=O)CC1(C2)Cc2cc(CC)c3c(c2C1)C(=O)CCC3	> 100 µM (inactive)	> 100 µM (inactive)	> 100 µM (inactive)	87.5 µM (inactive)	> 100 µM (inactive)	24.1 µM (inactive)		> 100 µM (inactive)	> 100 µM (inactive)	> 100 µM (inactive)	46.5 µM (inactive)	65.9 µM (inactive)	62.8 µM (inactive)	> 100 µM (inactive)	> 100 µM (inactive)	> 100 µM (inactive)	47.2 µM (inactive)	> 100 µM (inactive)	> 100 µM (inactive)	57.4 µM (inactive)
C(#C[C@@]12CCC[C@@H]1NCO2)c1ccc2c(c1)OCO2	29.3 µM (inactive)	> 100 µM (inactive)	61.5 µM (inactive)	70.5 µM (inactive)	57.9 µM (inactive)	36.8 µM (inactive)	78.3 µM (inactive)	> 100 µM (inactive)	43.7 µM (inactive)		55.8 µM (inactive)	21.9 µM (inactive)	37.3 µM (inactive)	35.6 µM (inactive)	87.3 µM (inactive)	50.6 µM (inactive)	69.7 µM (inactive)	> 100 µM (inactive)	60.8 µM (inactive)	44.2 µM (inactive)
